Experimental data reported in US5578622A, “Isothiazole derivatives and their uses” (Asamura Patent Office, priority 1994, dated 1996).

Experiments:
Rhizopus nigricans = assay: Test for wood rotting-preventing effect (mycelium growth inhibition on malt extract agar); format: cell-based; settings: Rhizopus stolonifer, 28° C.±2° C., 2 to 10 days, read-out: Rotting preventing effect (mycelium growth-inhibitory rate), RHN
Description: (§1) The following fungi were cultured in agar media, respectively, and mycelial disks on the media were stamped out together with the agar using a cork borer of 4 mm in diameter. The resulting mycelial disks on agar were used as an inoculum. Each test compound of 50 ppm was added to a malt extract agar medium and added in parts to Petri dishes. The above prepared inoculum was put on the Petri dishes and cultured at 28° C.±2° C. Two to ten days after inoculation, the diameter of the mycelial disk of each fungus was measured, and the mycelium growth-inhibitory rate was obtained according to the following equation. [formula] The mycelium growth-inhibitory rate (%) is indicated by the following symbols as a fungicidal effect on each fungus, and the results are shown in Table 2. | RHN: Rhizopus nigricans

Trichoderma viride = assay: as above; format: cell-based; settings: 28° C.±2° C., 2 to 10 days, read-out: Rotting preventing effect (mycelium growth-inhibitory rate), TRV
Description: as §1, with “TRV: Trichoderma viride” for “RHN: Rhizopus nigricans”

[1] = system: Pseudoperonospora cubensis; assay: Test for controlling effect on downy mildew of cucumber; format: in vivo; settings: 168 h, 200 ppm spray, one day before inoculation, cucumber 2-leaf stage, read-out: Controlling effect (control of disease), Downy mildew of cucumber
Description: 2-2 Test for controlling effect on downy mildew of cucumber (Pseudoperonospora cubensis) A test compound adjusted to 200 ppm was sprayed onto cucumber at the 2-leaf stage cultivated in pots. After one day, the cucumber was inoculated by spraying the zoospore suspension of Pseudoperonospora cubensis. After inoculation, the cucumber was placed in a 25° C.-humid room for 1 day and then in a greenhouse for 6 days. Thus, the cucumber was made to be infected with downy mildew. The control of disease of the test compound is calculated by comparing the degree of infection of each leaf with that in the untreated plot. The control of disease is shown as a controlling effect in the same manner as in Test Example 2-1.

Rhizoctonia solani = assay: Test for controlling effect on sheath blight of rice; format: in vivo; settings: 120 h, 200 ppm spray, 24 hours after inoculation, rice 4-leaf stage, five days after inoculation, read-out: Controlling effect (control of disease), Sheath blight of rice
Description: 2-3 Test for controlling effect on sheath blight of rice (Rhizoctonia solani) Rice seedlings at the 4-leaf stage were inoculated with the mycelium of sheath blight of rice (Rhizoctonia solani). After 24 hours, a test medicine solution adjusted to 200 ppm was sprayed onto the seedlings. After air-drying, the seedlings were placed in a humid room for 24 hours where the temperature was kept at 28° C. and humidity was kept at 98%. Thereafter, the seedlings were transferred to a greenhouse, and five days after inoculation, the degree of infected area was examined. The control of disease was calculated by comparison with that in the untreated plot. The control of disease is shown as a controlling effect in the same manner as in Test Example 2-1.

Aspergillus niger = assay: Test for wood rotting-preventing effect (mycelium growth inhibition on malt extract agar); format: cell-based; settings: 28° C.±2° C., 2 to 10 days, read-out: Rotting preventing effect (mycelium growth-inhibitory rate), ASN
Description: as §1, with “ASN: Aspergillus niger” for “RHN: Rhizopus nigricans”

Tyromyces palustris = assay: as above; format: cell-based; settings: 28° C.±2° C., 2 to 10 days, read-out: Rotting preventing effect (mycelium growth-inhibitory rate), TYP
Description: as §1, with “TYP: Tyromyces palustris” for “RHN: Rhizopus nigricans”

[2] = system: Gibberella fujikuroi ("Bakanae" disease of rice); assay: Test for rice seed-disinfecting effect; format: in vivo; settings: Fusarium fujikuroi, 504 h, seed immersion 25° C. 24 hours, three weeks after treatment, read-out: Controlling effect (control of disease), "Bakanae" disease of rice
Description: 2-1 Test for rice seed-disinfecting effect
Unhulled rice infected with Gibberella fujikuroi ("Bakanae" disease of rice) was immersed in a test compound adjusted to 1000 ppm at 25° C. for 24 hours. Water was lightly swished off the seed, which was then sowed and germinated for two days. Three weeks after treatment with the solution containing the compound, the rate of the infected seedlings was examined, and the control of disease was calculated by comparison with that of the untreated plot. The control of disease was shown as a controlling effect on the basis of the following standard.

| Compound | inhibition at 50 ppm (Rhizopus nigricans) [%] | inhibition at 50 ppm (Trichoderma viride) [%] | pest or weed control at 200 ppm [1] [%] | pest or weed control at 200 ppm (Rhizoctonia solani) [%] | inhibition at 50 ppm (Aspergillus niger) [%] | inhibition at 50 ppm (Tyromyces palustris) [%] | pest or weed control at 1000 ppm [2] [%] |
| --- | --- | --- | --- | --- | --- | --- | --- |
| COc1nsc(OCCC#CI)c1C#N [Compound 80, 3-methoxy-4-cyano-5-(4-iodo-3-butynyloxy)isothiazole] | 95 to 100 | 95 to 100 | 95 to 100 | 80 to 94 | 95 to 100 | 95 to 100 | 95 to 100 |
| C#CCSc1snc(OCC#CI)c1C#N [Compound 10] | 80 to 94 | 80 to 94 |  |  | 95 to 100 | 95 to 100 |  |
| COC(=O)Sc1snc(OCC#CI)c1C#N [Compound 20] | 60 to 79 | 95 to 100 | 95 to 100 | 60 to 79 | 80 to 94 | 95 to 100 | 80 to 94 |
| COc1snc(OCOCC#CI)c1C#N [Compound 95] | 95 to 100 | 95 to 100 |  |  | 95 to 100 | 95 to 100 |  |
| CC(C)Oc1snc(OCOCC#CI)c1C#N [Compound 98] | 95 to 100 | 95 to 100 |  |  | 95 to 100 | 95 to 100 |  |
| CC(C)Sc1snc(OCCC#CI)c1C#N [Compound 72] | 95 to 100 | 95 to 100 |  |  | 95 to 100 | 95 to 100 |  |
| CC(=O)Oc1nsc(SCOCC#CI)c1C#N [Compound 67] | 95 to 100 | 80 to 94 | 80 to 94 | 95 to 100 | 80 to 94 | 95 to 100 | 80 to 94 |
| C=CC[S+]([O-])c1snc(OCC#CI)c1C#N (stereo not shown) [Compound 47] |  |  | 80 to 94 | 95 to 100 |  |  | 95 to 100 |
| N#Cc1c(SCOCC#CI)nsc1SCOCC#CI [Compound 140] |  |  | 95 to 100 | 80 to 94 |  |  | 80 to 94 |
| CSc1snc(OCOCC#CI)c1C#N [Compound 85] | 95 to 100 | 95 to 100 |  |  | 95 to 100 | 95 to 100 |  |
| CCCCN(C)c1snc(OCC#CI)c1C#N [Compound 32] |  |  | 95 to 100 | 60 to 79 |  |  | 80 to 94 |
| CCSc1snc(OCOCC#CI)c1C#N [Compound 86, 3-(3-iodo-2-propynyloxymethyloxy)-4-cyano-5-ethylthioisothiazole] | 95 to 100 | 95 to 100 | 95 to 100 | 80 to 94 | 95 to 100 | 95 to 100 | 95 to 100 |
| C=CCSc1snc(SCOCC#CI)c1C#N [Compound 132] | 95 to 100 | 95 to 100 |  |  | 95 to 100 | 95 to 100 |  |
| COCCOc1nsc(OCCC#CI)c1C#N [Compound 84] | 95 to 100 | 95 to 100 |  |  | 95 to 100 | 95 to 100 |  |
| CC(C)(C#CI)OCOc1nsc(S(C)(=O)=O)c1C#N [Compound 103] | 80 to 94 | 95 to 100 | 95 to 100 | 95 to 100 | 95 to 100 | 95 to 100 | 95 to 100 |
| CSc1snc(OCOC(C)(C)C#CI)c1C#N [Compound 100, 3-(3-iodo-l,l-dimethyl-2-propynyloxymethyloxy)-4-cyano-5-methylthioisothiazole] | 80 to 94 | 95 to 100 | 95 to 100 | 95 to 100 | 80 to 94 | 95 to 100 | 95 to 100 |
| N#Cc1c(OCC#CI)nsc1S(=O)(=O)C1CCCC1 [Compound 46] | 60 to 79 | 60 to 79 |  |  | 80 to 94 | 95 to 100 |  |
| CC(C)Oc1nsc(OCC#CI)c1C#N [Compound 51] | 95 to 100 | 95 to 100 |  |  | 95 to 100 | 95 to 100 |  |
| CSc1snc(OCOC(C)C#CI)c1C#N (stereo not shown) [Compound 110] | 95 to 100 | 95 to 100 | 95 to 100 | 95 to 100 | 95 to 100 | 95 to 100 | 95 to 100 |
| CCSc1snc(OCC#CI)c1C#N [Compound 2] | 80 to 94 | 80 to 94 |  |  | 60 to 79 | 95 to 100 |  |
| CCSc1snc(SCOCC#CI)c1C#N [Compound 129] | 80 to 94 | 95 to 100 |  |  | 80 to 94 | 95 to 100 |  |
| N#Cc1c(OCC#CI)nsc1SC1CCCC1 [Compound 7] | 60 to 79 | 60 to 79 |  |  | 60 to 79 | 95 to 100 |  |
| COCCSc1snc(OCC#CI)c1C#N [Compound 15] |  |  | 80 to 94 | 80 to 94 |  |  | 95 to 100 |
| CCOc1snc(OCOC(C)C#CI)c1C#N (stereo not shown) [Compound 114] |  |  | 95 to 100 | 80 to 94 |  |  | 95 to 100 |
| CCOc1nsc(SC(C)OCC#CI)c1C#N (stereo not shown) [Compound 126] | 95 to 100 | 95 to 100 |  |  | 95 to 100 | 95 to 100 |  |
| CCCSc1snc(OCOCC#CI)c1C#N [Compound 87] | 95 to 100 | 95 to 100 |  |  | 95 to 100 | 95 to 100 |  |
| N#Cc1c(OCC#CI)nsc1SCOCC#CI [Compound 142] | 95 to 100 | 95 to 100 |  |  | 95 to 100 | 95 to 100 |  |
| C=CCSc1snc(OCC#CI)c1C#N [Compound 8] |  |  | 95 to 100 | 60 to 79 |  |  | 95 to 100 |
| N#CCSc1snc(OCC#CI)c1C#N [Compound 17] |  |  | 95 to 100 | 95 to 100 |  |  | 95 to 100 |
